Here are results for three compounds from patent US20250387359A1, “COMPOUNDS AND METHODS FOR THE TREATMENT OF PARASITIC INFECTIONS” (THE BOARD OF TRUSTEES OF THE UNIVERSITY OF ILLINOIS, priority 2019, published 2025).

The structures appear in SMILES notation. Like-named read-outs stand apart in the source and are kept apart here.

Assay [1] addresses T1, recombinant CpLDH protein (Cryptosporidium parvum, UniProt Q9GT92, F198L/K295E/R251K). Particulars: previous studies; cited from earlier work.
In assay [2] the target is T1, recombinant CpLDH protein. Nature of the assay: CpLDH enzyme kinetics on substrates and co-factors. It counts as biochemical. How it is done: Biochemical assays. The coding sequence of CpLDH was cloned from cDNA prepared from the AUCP-1 isolate of C. parvum, and the His-tagged CpLDH recombinant protein expressed in Escherichia coli, and purified in native form essentially as previously described (Int. J. Parasitol. 2017; 47(13), 867-874). Briefly, cDNA was prepared from total RNA extracted from the AUCP-1 isolate of C. parvum, and the coding sequencing of CpLDH (Genebank accession number AF274310.1) was PCR-amplified from the cDNA using a primer pair with a XhoI restriction site and a BamHI site. The PCR amplicon was cloned at the XhoI/BamHI site of the pET15b expression vector in-frame with the hexahistidine (His-tag) at the N-terminal and sequenced to confirm identity. The recombinant expression vector was transformed into protein expression E. coli BL21-CodonPlus-DE3-RIL (Stratagene). Transformed E. coli was cultured at 37° C. in Luria broth medium (supplemented with 100 μg/ml ampicillin and 34 μg/ml chloramphenicol) to an A600 of 0.8 followed by addition of 1 mM isopropyl-β-d-thiogalactopyranoside to induce protein expression. The expression E. coli was harvested and lysed under native conditions by sonicating in lysis buffer (50 mM NaH2PO4, 300 mM NaCl, 10 mM Imidazole, pH 8.0) containing a 1× EDTA-free protease inhibitor cocktail, 600 units benzonase and 30 kU lysozyme (EMD Millipore). The lysate was clarified by centrifugation and the His-tagged recombinant protein purified under native conditions by nickel-affinity chromatography according to the manufacturer's instructions (Novagen). The wash buffer used contained 50 mM NaH2PO4, 300 mM NaCl and 20 mM Imidazole, pH 8.0, while the elution buffer was composed of 50 mM NaH2PO4, 300 mM NaCl, 250 mM Imidazole, pH 8.0. The eluate was dialyzed using a buffer containing 5 mM Hepes-KOH (pH 7.8) and 0.5 mM DTT. The purity of the recombinant protein was determined by SDS/PAGE, and the concentration measured using a Qubit 3.0 fluorometer (Life technologies). […] On the other hand, the catalytic activity of CpLDH recombinant protein for the oxidation of lactate to pyruvate was determined by measuring the change in optical density of a 100 μl reaction mixture containing 100 mM lactate, 1 mM NAD^+, 100 mM Tris, pH 9.2, with varying concentrations of CpLDH recombinant protein at 25° C. […] In all assays, reaction mixtures without recombinant CpLDH protein were included as negative controls. All assays were performed in triplicate and repeated at least thrice. The change in optical density was measured every 15 seconds for a total of 2 minutes using a Spectra Max 384 Plus plate reader (Molecular Devices) at a wavelength of 340 nm.

For assay [3], the target named is T1, recombinant CpLDH protein. Particulars: reported by Zhang et al., PLoS Pathog. 2015; cited from earlier work.
Assay [4] concerns Cryptosporidium parvum. The settings on record: previously reported by others; read-out: IC50, inhibition of C. parvum growth in HCT-8 cells; cited from earlier work.
The test system of assay [5] is Cryptosporidium parvum. In words: In vitro anti-Cryptosporidium effect in HCT-8 cells (immunofluorescence assay). It counts as cell-based. Particulars: Cryptosporidium parvum, HCT-8 cells, positive control, read-out: IC50, inhibition of C. parvum growth. How it is done: In vitro testing of the anti-Cryptosporidium effect of CpLDH inhibitors. HCT-8 cells were cultured in supplemented RPMI-1640 medium in 96-well plates. When the cells were confluent, old medium was replaced with fresh medium. To one set of wells, varying concentrations of recombinant CpLDH inhibitors (reconstituted in DMSO and diluted in RPMI medium) were added, while another set was left without inhibitors. Paromomycin was used as a positive control drug reconstituted in distilled sterile water. Then, 4×10^4 freshly excysted sporozoites were added to each well and incubated at 37° C. with 5% CO2. After 2 h incubation, varying concentrations of CpLDH inhibitors were added to the set of infected cells that were not treated initially. Control infected cells without inhibitors, but with added DMSO volumes equivalent to those used in the wells with inhibitors, were included. The cells were maintained in culture for a total of either 48 h or 72 h and processed for immunofluorescence assay as previously described (Int. J. Parasitol. 2017; 47(13), 867-874). Briefly, medium was decanted, and the cells fixed with methanol-acetic acid (9:1) for 2 minutes at room temperature. The cells were rehydrated and permeabilized by two successive washes with buffer (0.1% Triton X-100, 0.35 M NaCl, 0.13 M Tris-base, pH 7.6) and blocked with 5% normal goat serum, followed by staining with antibody to C. parvum (SporoGlo; Waterborn, Inc.) overnight at 4° C. The stained cells were washed twice with PBS, followed by water, and then imaged with an inverted fluorescence microscope. Fluorescence quantification was done using ImageJ version 1.37v software (NIH). Assays were performed in triplicate and repeated at least thrice.

The subject of assay [6] is C. parvum. Nature of the assay: Real-time PCR quantification of C. parvum DNA in fecal samples of infected mice. It is filed as in vivo, Cryptosporidium parvum. Particulars: paromomycin 100 mg/kg; for fecal C. parvum DNA load: Table 6, infected mice, multiplier printed in next cell. How it is done: In vivo testing of the anti-Cryptosporidium effect of CpLDH inhibitors. Gamma interferon knockout mice (B6.129S7-Ifng), 8 weeks of age, were purchased from Charles River, USA. The care and use of the mice was done following the guidelines of protocol number 17024 approved by the University of Illinois at Urbana-Champaign, USA. The animals were allowed to acclimatize for 1 week before experiments commenced. Stock solutions of recombinant CpLDH inhibitors reconstituted in DMSO were diluted in sterile distilled water to reduce the final amount of DMSO in the solution to less than 1% (v/v) before administering them to mice. Prior to testing the anti-Cryptosporidium effect of the inhibitors in mice, the tolerability of each inhibitor was tested by oral gavage using varying dosages (100-2000 mg/kg body weight) of each inhibitor in groups of mice (three mice for each dose) daily for 7 days. Mice were observed daily for signs of toxicity including changes from normal physical activity, respiration, body temperature, feeding, posture, fur condition or occurrence of death. […] The subsequent dosages of NSC10447 used in the mice infection assays were 250, 500 and 1000 mg/kg mouse body weight, while the NSC158011 dosages used were 100, 200 and 400 mg/kg mouse body weight. Mice were allocated to groups as follows: “Infected plus inhibitor treatment”; “Infected minus inhibitor treatment”; “Uninfected minus inhibitor treatment” and “Infected plus paromomycin treatment”. Each group contained at least three mice. Each mouse in the infection groups received 5,000 C. parvum oocysts (resuspended in 50 μl of PBS) by oral gavage. Mice were housed individually in cages lined with sterile gauze as bedding. One day post-infection (PI), daily oral gavage administration of recombinant CpLDH inhibitor or paromomycin commenced and continued for a total of 7 days. Untreated mice received an equivalent volume of sterile distilled water (containing DMSO equivalent to the amount administered in the inhibitor-treated group) by oral gavage. Fecal pellets were collected daily from each cage and placed in individual sterile 15 ml conical tubes. An equivalent volume of PBS containing a cocktail of penicillin (100 units/ml), streptomycin (100 μg/ml), chloramphenicol (34 μg/ml) and amphotericin (0.25 μg/ml) was added to the fecal samples and stored at 4° C. until use for quantification of C. parvum genomic DNA load. Three independent replicate infection assays were performed. At 9 days PI, mice were euthanized and 5 cm of the distal small intestine resected 2 cm anterior to the cecum and immediately submerged in 4% buffered formalin. The intestinal tissues were submitted for histopathology to the Veterinary Diagnostic Laboratory at the University of Illinois at Urbana-Champaign. Briefly, intestinal tissues preserved in 4% buffered formalin were washed in 70% ethanol and embedded in 1% agar and then processed for paraffin embedding. For hematoxylin and eosin staining, five μm transverse and cross sections were cut and processed and stained following standard procedures of the Veterinary Diagnostic Laboratory. Sections were imaged using a Zeiss microscope and images captured with a color camera.
Quantification of C. parvum shed in mice feces. Genomic DNA was extracted from individual fecal samples collected from mice at different days as described above. For each sample, 220 mg of homogenized feces were used to extract genomic DNA using the QIAamp PowerFecal DNA Kit (Qiagen, USA) following the manufacturer's instructions. Quantification of the amount of C. parvum 18s rRNA gene (GenBank accession number AF164102) was performed essentially as described previously (Int. J. Parasitol. 2018; 48(8), 649-656). Briefly, primers were used to generate a 240 bp amplicon from C. parvum genomic DNA by conventional PCR. […]

Assay [7] has as its system C. parvum. In words: Histopathology of distal small intestine of C. parvum infected mice. The settings on record: lower small intestine, H&E, NSC158011 400 mg/kg, NSC10447 250, 500 or 1000 mg/kg, paromomycin 100 mg/kg. It is filed as in vivo, Cryptosporidium parvum. How it is done:
In vivo testing of the anti-Cryptosporidium effect of CpLDH inhibitors. Gamma interferon knockout mice (B6.129S7-Ifng), 8 weeks of age, were purchased from Charles River, USA. The care and use of the mice was done following the guidelines of protocol number 17024 approved by the University of Illinois at Urbana-Champaign, USA. The animals were allowed to acclimatize for 1 week before experiments commenced. Stock solutions of recombinant CpLDH inhibitors reconstituted in DMSO were diluted in sterile distilled water to reduce the final amount of DMSO in the solution to less than 1% (v/v) before administering them to mice. Prior to testing the anti-Cryptosporidium effect of the inhibitors in mice, the tolerability of each inhibitor was tested by oral gavage using varying dosages (100-2000 mg/kg body weight) of each inhibitor in groups of mice (three mice for each dose) daily for 7 days. Mice were observed daily for signs of toxicity including changes from normal physical activity, respiration, body temperature, feeding, posture, fur condition or occurrence of death. […] The subsequent dosages of NSC10447 used in the mice infection assays were 250, 500 and 1000 mg/kg mouse body weight, while the NSC158011 dosages used were 100, 200 and 400 mg/kg mouse body weight. Mice were allocated to groups as follows: “Infected plus inhibitor treatment”; “Infected minus inhibitor treatment”; “Uninfected minus inhibitor treatment” and “Infected plus paromomycin treatment”. Each group contained at least three mice. Each mouse in the infection groups received 5,000 C. parvum oocysts (resuspended in 50 μl of PBS) by oral gavage. Mice were housed individually in cages lined with sterile gauze as bedding. […] An equivalent volume of PBS containing a cocktail of penicillin (100 units/ml), streptomycin (100 μg/ml), chloramphenicol (34 μg/ml) and amphotericin (0.25 μg/ml) was added to the fecal samples and stored at 4° C. until use for quantification of C. parvum genomic DNA load. […]

Where [8] appears, read: pyruvate/NADH: reduction, lactate/NAD+: oxidation.

T1 sequence (Q9GT92 whole entry F198L/K295E/R251K): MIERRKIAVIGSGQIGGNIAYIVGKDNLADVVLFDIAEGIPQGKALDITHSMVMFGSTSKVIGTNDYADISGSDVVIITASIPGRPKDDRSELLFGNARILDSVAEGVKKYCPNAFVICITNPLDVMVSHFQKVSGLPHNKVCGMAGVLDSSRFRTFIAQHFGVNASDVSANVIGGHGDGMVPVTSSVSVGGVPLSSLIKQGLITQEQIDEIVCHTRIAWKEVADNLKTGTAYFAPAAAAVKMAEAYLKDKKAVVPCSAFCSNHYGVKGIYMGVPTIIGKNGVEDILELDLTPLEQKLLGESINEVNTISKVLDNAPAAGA

For the compound `CCCc1c(O)c(O)c(C(=O)O)c2cc(Cc3ccccc3)c(C)cc12` [FX11], the “inhibition of the enzymatic activity of CpLDH” value in assay [1] was “able to inhibit the enzymatic activity of CpLDH”.

Usually Km stands for the concentration of substrate that gives half-maximal velocity. On to `NC(=O)c1ccc[n+]([C@@H]2O[C@H](COP(=O)([O-])OP(=O)(O)OC[C@H]3O[C@@H](n4cnc5c(N)ncnc54)[C@H](O)[C@@H]3O)[C@@H](O)[C@H]2O)c1` [NAD^+], for which the Michaelis-Menten constant (Km) in assay [2] (pyruvate/NADH: reduction of pyruvate to lactate, lactate/NAD+: oxidation of lactate to pyruvate, 25° C., read-out: Km) is 56 µM. In assay [2] (setting [8]), the Kcat is 0.11 s⁻¹ and the Vmax stood at 0.07 nmol⁻¹ µg⁻¹ min⁻¹. In assay [3], the Kcat result was “(0.70)* s^−1”, the Km was 62 µM and the Vmax entry is recorded as “(0.56)* nmol^−1 · μg^−1 · min^−1”.

Usually IC50 stands for the concentration that inhibits the measured activity by half. As for `NC[C@@H]1O[C@H](O[C@H]2[C@@H](O)[C@H](O[C@@H]3[C@@H](O)[C@H](N)C[C@H](N)[C@H]3O[C@H]3O[C@H](CO)[C@@H](O)[C@H](O)[C@H]3N)O[C@@H]2CO)[C@H](N)[C@@H](O)[C@@H]1O` [paromomycin, reference compound], the 50% inhibitory concentration (IC50) in assay [4] was 711 µM; in assay [5] (48 h post-infection), 450 µM; in assay [5] (72 h post-infection) it was 400 µM. Further, the “fecal C. parvum DNA load” value in assay [6] (DPI 1) is 3.1 ± 0.2 ×10^−10 ng/μL; in assay [6] (DPI 2) it was 6.6 ± 0.5 ×10^−9 ng/μL; in assay [6] (DPI 3), 5.2 ± 0.3 ×10^−9 ng/μL; in assay [6] (DPI 4) it was 4.7 ± 0.2 ×10^−8 ng/μL; in assay [6] (DPI 5), 5.0 ± 0.6 ×10^−7 ng/μL; in assay [6] (DPI 6), 4.8 ± 0.1 ×10^−6 ng/μL. For the same compound, the “fecal C. parvum DNA load” value in assay [6] (DPI 7) was 5.1 ± 0.8 ×10^−6 ng/μL; in assay [6] (DPI 8), 5.4 ± 0.1 ×10^−6 ng/μL. In assay [6] (day 7 post-infection), the “reduction of shedding of C. parvum in mice feces vs untreated infected mice” value is recorded as “about 3000 fold”. Also, the “histopathology of intestinal epithelium and villi” value in assay [7] is given as “intact intestinal epithelium with prominent villi”.
